The target of assay [1] is T1, PLA2 GIB contained in the plasma of viremic patients (Homo sapiens, UniProt P04054).
T1 construct: CD4 lymphocytes purified from healthy donors were exposed to sera from viremic HIV-infected patients at 1% or 3% dilution; from tissue; host or cells: plasma/sera of viremic HIV-infected patients
The assay can be described thus: Bioassay: inhibition of IL-7-induced NTpSTAT5 in healthy donor CD4 T cells by plasma/sera of viremic HIV-infected patients. In kind it is cell-based. As to the method:
FIG. 3: Peptide I restores the activity of CD4 lymphocytes: CD4 lymphocytes purified from healthy donors were exposed to sera from viremic HIV-infected patients at 1% or 3% dilution. […] Five sera were tested and the results are given as the median+/−SD.
Viremic patients (VP) included in the study had been HIV-positive for more than one year. […] All blood samples from VP were drawn at Hôpital Bicêtre or Centre Hospitalier de Gonesse.
(§1) Inhibition of IL-7-induced phosphorylated STAT5 nuclear translocation (NTpSTAT) was measured as follows: VP plasma (5 or 10%) was first incubated with purified HD CD4 T cells (20 min) before stimulation by IL-7 (2 nM, 15 min.). Cells were then plated on polylysine coated glass slides before fixation by PFA (1.5%) and permeabilization by methanol (90% at −20° C.). pSTAT5 was then stained by rabbit anti-STAT5 and labeled with goat anti-rabbit-Atto642. The cells were analyzed by pulsed STED microscopy and the number of nuclei expressing pSTAT5 were counted.
We have shown that PLA2 GIB contained in the plasma of viremic patients induces a blockade of IL-7-induced nuclear translocation of phospho STAT5 (NT pSTAT5). […] Here we tested the effects of Peptide I on the capacity of the sera from VP to block IL-7-induced NTpSTAT5.
The effect of plasma from various HIV viremic patients (at least 5) were titrated on the inhibition of IL-7-induced NTpSTAT5. […]

A further assay deals with T2, Recombinant PLA2G1B (Homo sapiens, UniProt P04054).
T2 construct: sPLA2GIB was produced in E. Coli; Inclusion bodies were solubilized in urea and afterwards renatured; made in house; host or cells: E. coli
T2 sequence (P04054 23-148): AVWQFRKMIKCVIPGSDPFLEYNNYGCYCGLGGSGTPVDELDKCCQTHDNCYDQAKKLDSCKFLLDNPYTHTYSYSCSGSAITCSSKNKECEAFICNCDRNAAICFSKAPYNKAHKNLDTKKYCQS
The assay can be described thus: Bioassay: recombinant PLA2GIB-mediated inhibition of IL-7-induced nuclear translocation of phospho STAT5 in CD4 T cells (STED microscopy). Format: cell-based. The method, then:
FIG. 1: Peptide I inhibits sPLA2G1B: Recombinant PLA2G1B (75 nanoM) was first exposed 30 mn to indicated concentrations of Peptide I. The mixture was then applied in the bioassay described in Materials and Methods. % inhibition of IL-7-induced nuclear translocation of phospho STAT5 was measured by STED microscopy. The results of two experiments are shown.
FIG. 2: Calculation of IC50 of Peptide I: Experimental data were analyzed by Prism software in order to precisely calculate the IC50.
sPLA2GIB was produced in E. Coli. Inclusion bodies were solubilized in urea and afterwards renatured. sPLA2GIB was further purified by HPLC. Homogeneity of the preparations was verified by MassSpectrometry (Malditoff). The specific activity of the enzyme was always measured and compared to standard preparations.
as §1
We first investigated the effects of different doses of Peptide I on the biological activity of recombinant PLA2GIB as tested in the bioassay described in Materials and Methods. […] The experiment was repeated twice. From the experimental data we derived the corresponding theoretical curve that gives the IC50. For Peptide I, IC 50 is about 4.9 microM (FIG. 2).

Entries after “also recorded” stand apart in the source; their conditions may differ. Where a SMILES comes first, the peptide text is derived from it. [ ]: non-standard residue; d: D form. 2Nal = N[C@@H](Cc1ccc2ccccc2c1)C(=O)O

T1 sequence (P04054 23-148): as above

For orientation: IC50 means the concentration that inhibits the measured activity by half. Consider `CC(C)C[C@@H]1NC(=O)[C@H](Cc2ccc3ccccc3c2)NC(=O)[C@H](CCCNC(=N)N)NC(=O)[C@H](Cc2ccc3ccccc3c2)NC(=O)[C@H](CO)NC1=O` [Peptide I, cyclic(2-NaphthylAla-Leu-Ser-2-NaphthylAla-Arg)] (cyclo([2Nal]LS[2Nal]R); ring closure inferred), for which the “reversal of sera-induced inhibition of IL-7-induced nuclear translocation of pSTAT5” value in assay [1] (15 microM Peptide I, sera from viremic HIV-infected patients at 1% or 3% dilution, five sera) is recorded as “totally reversed this inhibition; also recorded: completely reverted the activity of the sera”. For the same compound, the “inhibition achieved when the plasma is used” value in assay [1] (plasma of viremic patients) is listed as “around 100%”. Moreover, the figures for the “inhibitory effect on recombinant PLA2GIB activity” value on Recombinant PLA2G1B (5 microM Peptide I) and at Recombinant PLA2G1B (10 microM Peptide I) were “effective” and “very strong”, respectively. For the same compound, the half-maximal inhibitory concentration (IC50) at Recombinant PLA2G1B (recombinant PLA2G1B 75 nanoM exposed 30 mn to Peptide I, calculated with Prism from two experiments, read-out: IC50 (inhibition of recombinant PLA2GIB biological activity)) is ~4.9 µM. For the same compound, the “maximum inhibition (plateau) with the recombinant enzyme” value on Recombinant PLA2G1B (recombinant pure enzyme in serum free buffer) is “around 80%”.

Values taken from patent US11154587B2, “Use of peptides to stimulate the immune system” (DIACCURATE, priority 2015, dated 2021).
